Reference: patent publication US20210346383A1, “COMPOUNDS, COMPOSITIONS AND METHODS FOR TREATING OR PREVENTING HER-DRIVEN CANCERS” (Rain Therapeutics Inc., priority 2018, published 2021)
Where two headings read alike, the source gives them in different places.

How the values were obtained:
[1] = tested on: H1975-luc human NSCLC cells, intracranial; details: cited from earlier work
[2] = biological target: Ba/F3 cells expressing HER2 VC + C805S (VCCS) (Homo sapiens, UniProt P04626, DELINS776-776VC/C805S, cells depend on it); test: Ba/F3 growth inhibitory assay, HER2 exon 20 mutations; format: cell-based, murine; details: read-out: IC50, growth inhibition
Experimental: (§1) The murine pro-B cell line Ba/F3 (RCB0805) was obtained from RIKEN Bio Resource Center (Tsukuba, Japan). […] Several Ba/F3 lines which were established in the previous study were also used in this study.
(§2) Briefly, 2000 cells were seeded in each well of 96-well plates. Twenty-four hours later, DMSO or a TKI at indicated drug concentration were added, and the cells were cultured for additional 72 hours. A colorimetric assay was used to estimate the growth inhibition of each drug using the Cell Counting Kit-8 reagent (Dojindo Laboratories, Kumamoto, Japan). Each experiment was performed in triplicate.
(§3) HER2 A775_G776insYVMA, G776delinsVC, P780_Y781insGSP, YVMA+C805S (YVMACS) and VC+C805S (VCCS) mutations were introduced into Ba/F3 cells using retroviral vector.

[3] = biological target: Ba/F3 cells expressing HER2 P780_Y781insGSP (Homo sapiens, UniProt P04626, DUP778-780, cells depend on it); test: as above; format: cell-based, murine; details: read-out: IC50, growth inhibition
Experimental: as §1, §2, §3

[4] = biological target: Ba/F3 cells expressing EGFR H773insH (Homo sapiens, UniProt P00533, DUP773-773, cells depend on it); test: Ba/F3 cell growth inhibition assay (Cell Counting Kit-8); format: cell-based, murine; details: 72 hours, read-out: IC50, growth inhibition
[5] = biological target: Ba/F3 cells expressing EGFR Del 19 + C797S (Homo sapiens, UniProt P00533, DEL746-750/C797S, cells depend on it); test: as above; format: cell-based, murine; details: Ba/F3 EGFR Del 19 + C797S; 72 hours; read-out: IC50, growth inhibition
[6] = biological target: Ba/F3 cells expressing HER2 YVMA + C805S (YVMACS) (Homo sapiens, UniProt P04626, DUP772-775/C805S, cells depend on it); test: Ba/F3 growth inhibitory assay, HER2 exon 20 mutations; format: cell-based, murine; details: read-out: IC50, growth inhibition
Experimental: as §1, §2, §3

[7] = biological target: Ba/F3 cells expressing EGFR L858R + C797S (Homo sapiens, UniProt P00533, C797S/L858R, cells depend on it); test: Ba/F3 cell growth inhibition assay (Cell Counting Kit-8); format: cell-based, murine; details: 72 hours, read-out: IC50, growth inhibition
[8] = biological target: Ba/F3 cells expressing HER2 G776delinsVC (Homo sapiens, UniProt P04626, DELINS776-776VC, cells depend on it); test: Ba/F3 growth inhibitory assay, HER2 exon 20 mutations; format: cell-based, murine; details: read-out: IC50, growth inhibition
Experimental: as §1, §2, §3

[9] = biological target: Ba/F3 cells expressing EGFR Del 19 + T790M + C797S (Homo sapiens, UniProt P00533, DEL746-750/T790M/C797S, cells depend on it); test: Ba/F3 cell growth inhibition assay (Cell Counting Kit-8); format: cell-based, murine; details: Ba/F3 EGFR Del 19 + T790M + C797S; 72 hours; read-out: IC50, growth inhibition
[10] = biological target: Ba/F3 cells expressing EGFR Del 19 (Homo sapiens, UniProt P00533, DEL746-750, cells depend on it); test: as above; format: cell-based, murine; details: Ba/F3 EGFR Del 19; 72 hours; read-out: IC50, growth inhibition
[11] = biological target: Ba/F3 cells expressing EGFR V769insASV (Homo sapiens, UniProt P00533, DUP767-769, cells depend on it); test: as above; format: cell-based, murine; details: 72 hours, read-out: IC50, growth inhibition
[12] = biological target: Ba/F3 cells expressing EGFR A763insFQEA (Homo sapiens, UniProt P00533, INS763FQEA, cells depend on it); test: as above; format: cell-based, murine; details: 72 hours, read-out: IC50, growth inhibition
[13] = biological target: Ba/F3 cells expressing HER2 A775_G776insYVMA (Homo sapiens, UniProt P04626, DUP772-775, cells depend on it); test: Ba/F3 growth inhibitory assay, HER2 exon 20 mutations; format: cell-based, murine; details: read-out: IC50, growth inhibition
Experimental: as §1, §2, §3

[14] = biological target: Ba/F3 cells expressing EGFR L858R + T790M + C797S (Homo sapiens, UniProt P00533, T790M/C797S/L858R, cells depend on it); test: Ba/F3 cell growth inhibition assay (Cell Counting Kit-8); format: cell-based, murine; details: 72 hours, read-out: IC50, growth inhibition
[15] = biological target: Ba/F3 cells expressing EGFR D770insSVD (Homo sapiens, UniProt P00533, DUP768-770, cells depend on it); test: as above; format: cell-based, murine; details: 72 hours, read-out: IC50, growth inhibition
[16] = biological target: Ba/F3 cells expressing EGFR L858R (Homo sapiens, UniProt P00533, L858R, cells depend on it); test: as above; format: cell-based, murine; details: 72 hours, read-out: IC50, growth inhibition
[17] = biological target: Ba/F3 cells expressing EGFR H773insNPH (Homo sapiens, UniProt P00533, DUP771-773, cells depend on it); test: as above; format: cell-based, murine; details: 72 hours, read-out: IC50, growth inhibition
[18] = tested on: H-1781 (ERBB2 p.G776Ins V_G/C); test: cells; format: cell-based
[19] = tested on: H-2170 (ERBB2 amplification); test: cells; format: cell-based; details: Homo sapiens
[20] = tested on: CALU-3 (ERBB2 amplification); test: cells; format: cell-based; details: Homo sapiens
[21] = tested on: CUTO-14 (EGFR A767_V769dupASV); test: cells; details: CUTO14, read-out: Cellular Anti-Proliferative Assay IC50
[22] = tested on: PC9 brain metastasis model; details: cited from earlier work
[23] = tested on: CUTO-17 (EGFR N771_H773dupNPH); test: cells; details: CUTO17, read-out: Cellular Anti-Proliferative Assay IC50
[24] = tested on: CUTO-18 (EGFR S768_D770dupSVD); test: cells; details: read-out: Cellular Anti-Proliferative Assay IC50
[25] = 10 mg/kg and 25 mg/kg once daily, 49-day treatment

Chain of Ba/F3 cells expressing HER2 A775_G776insYVMA (P04626 with tags, fused parts or gaps DUP772-775): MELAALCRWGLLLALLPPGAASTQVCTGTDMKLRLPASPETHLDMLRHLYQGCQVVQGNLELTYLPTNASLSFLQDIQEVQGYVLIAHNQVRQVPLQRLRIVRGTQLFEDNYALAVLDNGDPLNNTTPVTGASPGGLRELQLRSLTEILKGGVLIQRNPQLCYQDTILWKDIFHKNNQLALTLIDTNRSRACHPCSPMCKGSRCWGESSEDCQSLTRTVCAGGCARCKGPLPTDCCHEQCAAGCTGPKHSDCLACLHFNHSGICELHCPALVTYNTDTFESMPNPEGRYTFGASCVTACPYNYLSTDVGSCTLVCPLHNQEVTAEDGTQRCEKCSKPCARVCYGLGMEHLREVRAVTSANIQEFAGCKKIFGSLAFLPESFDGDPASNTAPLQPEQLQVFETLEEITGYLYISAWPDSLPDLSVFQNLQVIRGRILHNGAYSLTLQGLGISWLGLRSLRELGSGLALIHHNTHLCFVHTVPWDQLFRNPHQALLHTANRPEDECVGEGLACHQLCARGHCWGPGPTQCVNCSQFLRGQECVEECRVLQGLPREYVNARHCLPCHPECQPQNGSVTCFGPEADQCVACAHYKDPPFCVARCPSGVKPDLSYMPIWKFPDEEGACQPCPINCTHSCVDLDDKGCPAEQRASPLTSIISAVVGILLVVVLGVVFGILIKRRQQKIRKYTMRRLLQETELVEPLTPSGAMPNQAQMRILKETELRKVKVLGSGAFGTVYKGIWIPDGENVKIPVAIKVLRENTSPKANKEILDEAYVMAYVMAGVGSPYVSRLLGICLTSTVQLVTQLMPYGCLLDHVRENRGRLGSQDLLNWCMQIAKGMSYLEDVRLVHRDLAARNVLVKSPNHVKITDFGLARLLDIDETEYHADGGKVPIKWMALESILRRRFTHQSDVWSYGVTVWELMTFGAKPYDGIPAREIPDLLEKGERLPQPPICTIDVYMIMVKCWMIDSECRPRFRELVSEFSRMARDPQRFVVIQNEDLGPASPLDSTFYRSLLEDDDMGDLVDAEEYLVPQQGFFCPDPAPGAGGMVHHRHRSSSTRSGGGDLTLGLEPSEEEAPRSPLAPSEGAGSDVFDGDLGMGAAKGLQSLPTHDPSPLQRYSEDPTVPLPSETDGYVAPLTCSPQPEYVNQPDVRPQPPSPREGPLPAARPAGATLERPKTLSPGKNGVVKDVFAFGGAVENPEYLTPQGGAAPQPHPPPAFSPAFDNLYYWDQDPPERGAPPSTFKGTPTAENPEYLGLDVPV
Chain of Ba/F3 cells expressing HER2 G776delinsVC (P04626 with tags, fused parts or gaps DELINS776-776VC): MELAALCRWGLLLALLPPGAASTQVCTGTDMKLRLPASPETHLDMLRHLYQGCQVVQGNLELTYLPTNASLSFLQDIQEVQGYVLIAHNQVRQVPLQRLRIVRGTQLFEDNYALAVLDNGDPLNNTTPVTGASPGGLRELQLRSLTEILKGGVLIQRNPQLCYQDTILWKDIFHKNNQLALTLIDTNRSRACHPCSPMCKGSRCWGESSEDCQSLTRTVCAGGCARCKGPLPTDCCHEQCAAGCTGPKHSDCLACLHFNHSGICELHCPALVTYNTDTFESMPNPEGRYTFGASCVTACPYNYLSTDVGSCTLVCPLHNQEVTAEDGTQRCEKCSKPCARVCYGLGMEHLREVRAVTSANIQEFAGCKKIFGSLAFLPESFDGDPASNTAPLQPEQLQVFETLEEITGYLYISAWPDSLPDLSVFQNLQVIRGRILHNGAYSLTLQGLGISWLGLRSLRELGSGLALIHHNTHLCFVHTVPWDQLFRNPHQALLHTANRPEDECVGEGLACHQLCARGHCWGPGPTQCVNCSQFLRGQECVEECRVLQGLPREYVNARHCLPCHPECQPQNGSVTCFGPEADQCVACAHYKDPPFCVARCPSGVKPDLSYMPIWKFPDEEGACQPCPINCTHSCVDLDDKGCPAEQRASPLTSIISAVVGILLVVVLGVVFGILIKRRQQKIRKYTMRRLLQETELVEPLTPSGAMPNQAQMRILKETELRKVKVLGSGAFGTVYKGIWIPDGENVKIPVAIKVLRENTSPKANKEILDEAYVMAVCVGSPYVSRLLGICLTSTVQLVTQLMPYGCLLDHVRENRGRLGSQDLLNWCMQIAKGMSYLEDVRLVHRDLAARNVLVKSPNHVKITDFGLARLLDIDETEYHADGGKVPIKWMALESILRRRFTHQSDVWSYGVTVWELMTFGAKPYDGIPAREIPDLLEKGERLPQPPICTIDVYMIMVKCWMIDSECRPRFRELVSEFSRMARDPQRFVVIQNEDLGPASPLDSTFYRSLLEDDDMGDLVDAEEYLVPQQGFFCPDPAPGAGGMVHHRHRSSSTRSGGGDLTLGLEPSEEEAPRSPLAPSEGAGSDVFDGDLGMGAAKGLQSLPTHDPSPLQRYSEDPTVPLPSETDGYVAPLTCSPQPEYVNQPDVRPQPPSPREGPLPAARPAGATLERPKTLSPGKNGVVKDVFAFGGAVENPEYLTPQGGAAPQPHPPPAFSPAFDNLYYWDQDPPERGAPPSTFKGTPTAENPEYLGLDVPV
Chain of Ba/F3 cells expressing HER2 YVMA + C805S (YVMACS) (P04626 with tags, fused parts or gaps DUP772-775/C805S): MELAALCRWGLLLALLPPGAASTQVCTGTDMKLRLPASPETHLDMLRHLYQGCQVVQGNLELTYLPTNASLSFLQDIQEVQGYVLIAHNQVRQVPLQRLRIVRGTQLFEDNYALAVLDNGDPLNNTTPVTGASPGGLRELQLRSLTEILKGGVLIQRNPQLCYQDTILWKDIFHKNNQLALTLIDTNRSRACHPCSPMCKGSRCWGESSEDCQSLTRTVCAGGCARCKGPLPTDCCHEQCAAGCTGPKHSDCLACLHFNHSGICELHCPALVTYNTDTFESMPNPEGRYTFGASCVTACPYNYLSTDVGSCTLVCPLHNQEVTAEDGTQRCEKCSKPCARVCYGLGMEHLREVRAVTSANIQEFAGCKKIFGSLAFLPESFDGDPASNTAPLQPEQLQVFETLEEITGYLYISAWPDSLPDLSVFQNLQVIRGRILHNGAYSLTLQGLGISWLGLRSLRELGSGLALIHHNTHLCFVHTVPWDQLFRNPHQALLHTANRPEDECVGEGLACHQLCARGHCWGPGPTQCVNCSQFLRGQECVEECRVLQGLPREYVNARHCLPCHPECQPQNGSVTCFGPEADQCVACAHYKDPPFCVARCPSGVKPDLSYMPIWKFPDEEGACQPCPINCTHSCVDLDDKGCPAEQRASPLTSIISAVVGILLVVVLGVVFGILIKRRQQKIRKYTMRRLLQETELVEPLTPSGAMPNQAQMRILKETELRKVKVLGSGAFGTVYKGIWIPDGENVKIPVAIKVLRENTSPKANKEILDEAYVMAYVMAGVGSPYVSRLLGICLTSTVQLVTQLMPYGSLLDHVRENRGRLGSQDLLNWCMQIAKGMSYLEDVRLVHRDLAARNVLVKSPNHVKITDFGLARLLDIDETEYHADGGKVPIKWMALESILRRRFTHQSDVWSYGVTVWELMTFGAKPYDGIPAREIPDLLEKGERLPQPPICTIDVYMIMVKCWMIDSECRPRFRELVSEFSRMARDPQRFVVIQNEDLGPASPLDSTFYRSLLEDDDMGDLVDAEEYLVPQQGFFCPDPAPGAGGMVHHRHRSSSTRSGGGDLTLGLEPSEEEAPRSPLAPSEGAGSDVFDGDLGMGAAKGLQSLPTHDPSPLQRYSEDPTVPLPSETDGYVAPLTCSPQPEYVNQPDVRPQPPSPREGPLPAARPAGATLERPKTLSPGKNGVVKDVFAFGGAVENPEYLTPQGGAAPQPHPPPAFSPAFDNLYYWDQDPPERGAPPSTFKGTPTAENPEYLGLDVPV
Chain of Ba/F3 cells expressing HER2 P780_Y781insGSP (P04626 with tags, fused parts or gaps DUP778-780): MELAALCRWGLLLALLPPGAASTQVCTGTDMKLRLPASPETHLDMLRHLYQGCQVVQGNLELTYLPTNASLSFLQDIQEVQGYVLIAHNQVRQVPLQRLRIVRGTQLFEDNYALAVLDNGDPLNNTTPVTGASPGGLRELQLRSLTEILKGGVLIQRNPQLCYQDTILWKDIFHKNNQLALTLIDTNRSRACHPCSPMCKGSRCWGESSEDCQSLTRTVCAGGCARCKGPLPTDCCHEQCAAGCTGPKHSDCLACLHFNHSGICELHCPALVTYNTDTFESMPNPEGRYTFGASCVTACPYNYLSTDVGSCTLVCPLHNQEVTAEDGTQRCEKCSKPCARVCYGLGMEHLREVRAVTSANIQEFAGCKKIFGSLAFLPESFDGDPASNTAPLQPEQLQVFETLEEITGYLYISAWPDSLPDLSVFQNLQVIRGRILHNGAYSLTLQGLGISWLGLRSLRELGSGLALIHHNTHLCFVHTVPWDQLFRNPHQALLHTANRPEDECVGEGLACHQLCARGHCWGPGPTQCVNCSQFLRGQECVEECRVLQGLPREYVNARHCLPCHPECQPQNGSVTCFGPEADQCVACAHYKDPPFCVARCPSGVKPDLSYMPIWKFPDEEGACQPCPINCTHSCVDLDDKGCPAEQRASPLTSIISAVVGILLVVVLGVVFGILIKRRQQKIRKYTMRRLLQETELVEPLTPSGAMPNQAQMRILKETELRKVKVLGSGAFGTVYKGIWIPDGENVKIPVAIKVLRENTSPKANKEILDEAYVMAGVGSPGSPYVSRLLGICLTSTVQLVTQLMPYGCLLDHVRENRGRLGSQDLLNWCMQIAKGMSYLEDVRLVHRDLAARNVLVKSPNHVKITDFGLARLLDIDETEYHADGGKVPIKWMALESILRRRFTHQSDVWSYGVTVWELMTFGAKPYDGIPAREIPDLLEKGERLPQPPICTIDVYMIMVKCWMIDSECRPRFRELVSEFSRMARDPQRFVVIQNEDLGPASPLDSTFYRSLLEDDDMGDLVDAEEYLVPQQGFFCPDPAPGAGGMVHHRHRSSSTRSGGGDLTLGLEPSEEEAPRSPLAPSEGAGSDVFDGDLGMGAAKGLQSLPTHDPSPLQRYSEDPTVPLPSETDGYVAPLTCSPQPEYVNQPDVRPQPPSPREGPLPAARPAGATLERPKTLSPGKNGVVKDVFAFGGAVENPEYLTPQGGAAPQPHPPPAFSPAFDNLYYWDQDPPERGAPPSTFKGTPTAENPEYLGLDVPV

C=CC(=O)Nc1cc(Nc2nccc(-n3cc(CN(C)C)c(-c4ccccc4)n3)n2)c(OC)cc1N1CCOCC1 [YH25448]
body weight [1, 25]: no obvious loss of the body weight
intracranial tumor growth inhibition vs osimertinib [1, 25]: more effectively inhibited intracranial tumor growth than osimertinib
intracranial tumor regression ([1]; H1975 xenograft model): showed intracranial tumor regression

C=CC(=O)N1CCC(Oc2cc3c(Nc4ccc(Cl)c(Cl)c4F)ncnc3cc2OC)CC1 [Poziotinib]
GI50 [2]: 27.9 nM
GI50 [3]: 1.03 nM
GI50 [4]: 22.8 nM
GI50 [5]: 1.6 nM
GI50 [6]: 316 nM
GI50 [7]: 7.1 nM
GI50 [8]: 0.02 nM
GI50 [9]: > 1000 nM
GI50 [10]: < 0.457 nM
GI50 [11]: 28 nM
GI50 [12]: 0.7 nM
GI50 [13]: 0.64 nM
GI50 [14]: > 1000 nM
GI50 [15]: 27.9 nM
GI50 [16]: < 0.457 nM
GI50 [17]: 2.2 nM

CN(C)CC=CC(=O)Nc1cc2c(Nc3ccc(F)c(Cl)c3)ncnc2cc1O[C@H]1CCOC1 [Afatinib, N-[4-[(3-Chloro-4-fluorophenyl)amino]-7-[[(3S)-tetrahydro-3-furanyl]oxy]-6-quinazolinyl]-4(dimethylamino)-2-butenamide]
IC50 ([18]; NCI-H1781, read-out: Cellular Anti-Proliferative Assay IC50): 66 nM
GI50 [2]: 41.3 nM
GI50 [3]: 6.5 nM
GI50 [6]: 545 nM
GI50 [8]: 2.05 nM
IC50 ([19]; NCI-H2170, read-out: Cellular Anti-Proliferative Assay IC50): 11 nM
GI50 [13]: 8.08 nM
IC50 ([20]; Calu-3, read-out: Cellular Anti-Proliferative Assay IC50): 31 nM

C=CC(=O)Nc1cc(Nc2nccc(-c3cn(C)c4ccccc34)n2)c(OC)cc1N(C)CCN(C)C [Osimertinib, N-(2-{2-dimethylaminoethyl-methylamino}-4-methoxy-5-{[4-(1-methylindol-3-yl)pyrimidin-2-yl]amino}phenyl)prop-2-enamide]
IC50 ([18]; NCI-H1781, H-1781, ERBB2 p.G776Ins V_G/C, normoxic conditions, read-out: Cellular Anti-Proliferative Assay IC50): 406 nM
GI50 [2]: > 1000 nM
GI50 [3]: 88.5 nM
GI50 [6]: > 1000 nM
GI50 [8]: 7.23 nM
IC50 [21]: 303 nM
tumor regression ([22]; 5 mg/kg QD, first three weeks): caused tumor regression, which was more transient
tumor regression ([22]; 25 mg/kg QD): induced sustained tumor regression until study end at day 60
IC50 ([19]; NCI-H2170, H-2170, ERBB2 amplification, normoxic conditions, read-out: Cellular Anti-Proliferative Assay IC50): 113 nM
GI50 [13]: 68.3 nM
IC50 [23]: 426 ± 3 nM
IC50 ([20]; CALU-3, ERBB2 amplification, normoxic conditions, read-out: Cellular Anti-Proliferative Assay IC50): 188 nM
IC50 [24]: 647 ± 3 nM
